Reference: PubChem BioAssay (NCI)
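Compound exposure: 48 hours, 5 concentrations, 96-well plates. GI50 is the concentration that inhibits growth by half. TGI: total growth inhibition.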

Tests used:
Assay in all cases: NCI anticancer screen, dose series, 48 h
NCI-H226 lung = tested on: NCI-H226 lung
SR leukemia = tested on: SR leukemia
OVCAR-5 ovarian = tested on: OVCAR-5 ovarian
ACHN renal = tested on: ACHN renal
SF-539 CNS = tested on: SF-539 CNS
UO-31 renal = tested on: UO-31 renal
HCC-2998 colon = tested on: HCC-2998 colon
PC-3 prostate = tested on: PC-3 prostate
SF-268 CNS = tested on: SF-268 CNS
MCF7 breast = tested on: MCF7 breast
HCT-116 colon = tested on: HCT-116 colon
TK-10 renal = tested on: TK-10 renal
T-47D breast = tested on: T-47D breast
CCRF-CEM leukemia = tested on: CCRF-CEM leukemia
MDA-MB-231 breast = tested on: MDA-MB-231 breast
KM12 colon = tested on: KM12 colon
HS 578T breast = tested on: HS 578T breast
U251 CNS = tested on: U251 CNS
BT-549 breast = tested on: BT-549 breast
IGROV1 ovarian = tested on: IGROV1 ovarian
NCI-H23 lung = tested on: NCI-H23 lung
OVCAR-8 ovarian = tested on: OVCAR-8 ovarian
SF-295 CNS = tested on: SF-295 CNS
UACC-62 melanoma = tested on: UACC-62 melanoma
HL-60(TB) leukemia = tested on: HL-60(TB) leukemia
COLO 205 colon = tested on: COLO 205 colon
SN12C renal = tested on: SN12C renal
EKVX NSCLC = tested on: EKVX NSCLC
SNB-19 CNS = tested on: SNB-19 CNS
NCI/ADR-RES ovarian = tested on: NCI/ADR-RES ovarian
SW-620 colon = tested on: SW-620 colon
CAKI-1 renal = tested on: CAKI-1 renal
SK-MEL-5 melanoma = tested on: SK-MEL-5 melanoma
MALME-3M melanoma = tested on: MALME-3M melanoma
HOP-92 NSCLC = tested on: HOP-92 NSCLC
MOLT-4 leukemia = tested on: MOLT-4 leukemia
RPMI-8226 leukemia = tested on: RPMI-8226 leukemia
HOP-62 NSCLC = tested on: HOP-62 NSCLC
NCI-H522 lung = tested on: NCI-H522 lung
HT29 colon = tested on: HT29 colon
M14 melanoma = tested on: M14 melanoma
DU-145 prostate = tested on: DU-145 prostate
SK-MEL-2 melanoma = tested on: SK-MEL-2 melanoma
786-0 renal = tested on: 786-0 renal
RXF 393 renal = tested on: RXF 393 renal
HCT-15 colon = tested on: HCT-15 colon
A498 renal = tested on: A498 renal
SK-MEL-28 melanoma = tested on: SK-MEL-28 melanoma
OVCAR-4 ovarian = tested on: OVCAR-4 ovarian
OVCAR-3 ovarian = tested on: OVCAR-3 ovarian
LOX IMVI melanoma = tested on: LOX IMVI melanoma
NCI-H460 lung = tested on: NCI-H460 lung
A549 NSCLC = tested on: A549 NSCLC
SNB-75 CNS = tested on: SNB-75 CNS
MDA-MB-468 breast = tested on: MDA-MB-468 breast
MDA-MB-435 = tested on: MDA-MB-435
UACC-257 melanoma = tested on: UACC-257 melanoma
SK-OV-3 ovarian = tested on: SK-OV-3 ovarian
K-562 leukemia = tested on: K-562 leukemia

SMILES: O=C(COc1ccc(/C=C2/C(=O)Nc3ccc(Cl)cc32)cc1)Nc1ccc(Br)cc1
- GI50 (NCI-H226 lung): 1.55 µM
- TGI (NCI-H226 lung): 3.81 µM
- GI50 (SR leukemia): 2.93 µM
- TGI (SR leukemia): 12.1 µM
- GI50 (OVCAR-5 ovarian): 2.29 µM
- TGI (OVCAR-5 ovarian): 7.61 µM
- GI50 (ACHN renal): 1.2 µM
- TGI (ACHN renal): 2.47 µM
- GI50 (SF-539 CNS): 1.59 µM
- TGI (SF-539 CNS): 3.04 µM
- GI50 (UO-31 renal): 0.221 µM
- TGI (UO-31 renal): 2.27 µM
- GI50 (HCC-2998 colon): 4.46 µM
- TGI (HCC-2998 colon): 17.6 µM
- GI50 (PC-3 prostate): 1.79 µM
- TGI (PC-3 prostate): 6.25 µM
- GI50 (SF-268 CNS): 2.42 µM
- TGI (SF-268 CNS): 10.8 µM
- GI50 (MCF7 breast): 2.03 µM
- TGI (MCF7 breast): 7.86 µM
- GI50 (HCT-116 colon): 1.55 µM
- TGI (HCT-116 colon): 3.09 µM
- GI50 (TK-10 renal): 2.74 µM
- TGI (TK-10 renal): 5.51 µM
- GI50 (T-47D breast): 1.93 µM
- TGI (T-47D breast): 7.56 µM
- GI50 (CCRF-CEM leukemia): 2.11 µM
- TGI (CCRF-CEM leukemia): 5.54 µM
- GI50 (MDA-MB-231 breast): 1.36 µM
- TGI (MDA-MB-231 breast): 2.88 µM
- GI50 (KM12 colon): 2.47 µM
- TGI (KM12 colon): 11.6 µM
- GI50 (HS 578T breast): 2.02 µM
- TGI (HS 578T breast): 6.68 µM
- GI50 (U251 CNS): 1.75 µM
- TGI (U251 CNS): 3.29 µM
- GI50 (BT-549 breast): 1.43 µM
- TGI (BT-549 breast): 4.75 µM
- GI50 (IGROV1 ovarian): 2.24 µM
- TGI (IGROV1 ovarian): 8.14 µM
- GI50 (NCI-H23 lung): 1.66 µM
- TGI (NCI-H23 lung): 3.46 µM
- GI50 (OVCAR-8 ovarian): 1.87 µM
- TGI (OVCAR-8 ovarian): 3.93 µM
- GI50 (SF-295 CNS): 1.74 µM
- TGI (SF-295 CNS): 3.8 µM
- GI50 (UACC-62 melanoma): 1.35 µM
- TGI (UACC-62 melanoma): 5.72 µM
- GI50 (HL-60(TB) leukemia): 3.51 µM
- TGI (HL-60(TB) leukemia): 14.9 µM
- GI50 (COLO 205 colon): 4.61 µM
- TGI (COLO 205 colon): 17.1 µM
- GI50 (SN12C renal): 1.75 µM
- TGI (SN12C renal): 4.39 µM
- GI50 (EKVX NSCLC): 1.92 µM
- TGI (EKVX NSCLC): 5.99 µM
- GI50 (SNB-19 CNS): 2.72 µM
- TGI (SNB-19 CNS): 8.08 µM
- GI50 (NCI/ADR-RES ovarian): 1.77 µM
- TGI (NCI/ADR-RES ovarian): 4.04 µM
- GI50 (SW-620 colon): 1.89 µM
- TGI (SW-620 colon): 3.82 µM
- GI50 (CAKI-1 renal): 1.47 µM
- TGI (CAKI-1 renal): 3.58 µM
- GI50 (SK-MEL-5 melanoma): 2.14 µM
- TGI (SK-MEL-5 melanoma): 5.47 µM
- GI50 (MALME-3M melanoma): 1.5 µM
- TGI (MALME-3M melanoma): 3.68 µM
- GI50 (HOP-92 NSCLC): 1.61 µM
- TGI (HOP-92 NSCLC): 3.83 µM
- GI50 (MOLT-4 leukemia): 2.61 µM
- TGI (MOLT-4 leukemia): 8.48 µM
- GI50 (RPMI-8226 leukemia): 4.04 µM
- TGI (RPMI-8226 leukemia): 14.8 µM
- GI50 (HOP-62 NSCLC): 1.62 µM
- TGI (HOP-62 NSCLC): 3.79 µM
- GI50 (NCI-H522 lung): 1.71 µM
- TGI (NCI-H522 lung): 4.64 µM
- GI50 (HT29 colon): 2.87 µM
- TGI (HT29 colon): 9.07 µM
- GI50 (M14 melanoma): 1.67 µM
- TGI (M14 melanoma): 5.81 µM
- GI50 (DU-145 prostate): 2.38 µM
- TGI (DU-145 prostate): 6.52 µM
- GI50 (SK-MEL-2 melanoma): 2.58 µM
- TGI (SK-MEL-2 melanoma): 10.8 µM
- GI50 (786-0 renal): 1.78 µM
- TGI (786-0 renal): 3.21 µM
- GI50 (RXF 393 renal): 1.59 µM
- TGI (RXF 393 renal): 3.24 µM
- GI50 (HCT-15 colon): 1.4 µM
- TGI (HCT-15 colon): 10.1 µM
- GI50 (A498 renal): 7.37 µM
- TGI (A498 renal): 19.6 µM
- GI50 (SK-MEL-28 melanoma): 1.98 µM
- TGI (SK-MEL-28 melanoma): 5.02 µM
- GI50 (OVCAR-4 ovarian): 1.85 µM
- TGI (OVCAR-4 ovarian): 3.93 µM
- GI50 (OVCAR-3 ovarian): 1.7 µM
- TGI (OVCAR-3 ovarian): 3.18 µM
- GI50 (LOX IMVI melanoma): 1.36 µM
- TGI (LOX IMVI melanoma): 2.64 µM
- GI50 (NCI-H460 lung): 1.91 µM
- TGI (NCI-H460 lung): 3.79 µM
- GI50 (A549 NSCLC): 1.52 µM
- TGI (A549 NSCLC): 3.28 µM
- GI50 (SNB-75 CNS): 5.09 µM
- TGI (SNB-75 CNS): 20.3 µM
- GI50 (MDA-MB-468 breast): 10.3 µM
- TGI (MDA-MB-468 breast): 22 µM
- GI50 (MDA-MB-435): 3.45 µM
- TGI (MDA-MB-435): 13.5 µM
- GI50 (UACC-257 melanoma): 4.3 µM
- TGI (UACC-257 melanoma): 16.5 µM
- GI50 (SK-OV-3 ovarian): 1.49 µM
- TGI (SK-OV-3 ovarian): 4.12 µM
- GI50 (K-562 leukemia): 2.11 µM
- TGI (K-562 leukemia): 12.7 µM
